Assay results from patent publication US20090030066A1, “SMALL MOLECULES FOR THE PROTECTION OF PANCREATIC CELLS” (priority 2007, published 2009).

Legend:
RINm5F rat islet β-cells = assay: MTT viability of palmitic acid-treated RINm5F islet β-cells; assay type: cell-based; details: for A540 (MTT, relative number of viable cells): 24 h, mean ± S.D. n=8
Excerpt: (§1) In the Examples below, an MTT assay was used to determine the relative number of viable cells after treatments. This calorimetric assay is based on the ability of living cells, but not dead cells, to reduce 3-(4,5-dimethyl thiazol-2-yl)-2,5-diphenyltetrazolium bromide. [Carmichael, J, De Graff, W. G., Gazdar, A. F., Minna, J. D. and Mitchell, J. B. (1987) Evaluation of tetrazolium-based semiautomated calorimetric assay: Assessment of chemosensitivity testing. Cancer Res. 47, 936-942], which is hereby incorporated by reference. For this assay, cells were plated in 96-well plates, and the MTT assay was performed as described in the above article both in untreated and treated cell cultures. The MTT assay also was performed at the time when the treatment was started to allow for assessment of the proliferation and survival rates in the control and treated cell cultures. In the MTT assay, higher values mean proportionally higher numbers of viable cells.
RINm5F rat islet β-cells (ATCC CRL-2058; secondary clone of RIN-m clone secreting only insulin, but no somatostatin or glucagon) were used to determine if CCompound1 could protect them against fatty acid-induced cell death. The medium for propagation: RPMI 1640/10% fetal bovine serum.
Palmitic acid (purchased from Sigma-Aldrich) was dissolved in 200 mM ethanol and then diluted 1:25 with Krebs-Ringer-Hepes buffer containing 20% bovine serum albumin (fraction V, fatty acid-free; from Sigma-Aldrich). The fatty acid mixture was gently agitated at 37° C. under nitrogen overnight. The cells were seeded into 96-well plates at a density of 8,000 cells per well. When the cultures reached 70% confluence, fatty acid or a corresponding amount of albumin and CCompound1 (suspended in the medium) were added to the medium and incubations continued for 24 hours. This was followed by the MTT assay to determine the relative number of viable cells.

NIT-1 β-cells = assay: MTT viability of STZ-treated NIT-1 islet β-cells; assay type: cell-based, mouse; details: for A540 (MTT, relative number of viable cells): 30 h, 2% serum, mean ± std. dev. n=8
Excerpt: as §1
NIT-1 β-cells, originally isolated from transgenic NOD mouse carrying SV 40 large T antigen gene on a rat insulin promoter, were obtained from American Type Culture Collection (ATCC CRL-2055). NIT-1 cells contain and secrete insulin, while at the same time they retained their ability to proliferate in the presence of an appropriate stimulus. The cells, maintained in Ham's F12K medium containing 10% heat-inactivated dialyzed fetal bovine serum, were used between passages 32-35.
In this experiment, NIT-1 cells were seeded into 96-well plates. After 24 hours, the medium was replaced with fresh 2% fetal bovine serum containing medium, followed by treatments with 2-50 μM of CCompound1 and 30 min later with 20 mM STZ. Treatments were for 30 hours followed by the MTT assay to determine the relative number of viable cells (expressed as A540).

[1] = system: AR42J rat pancreatic tumor cell line; assay: MTT proliferation of AR42J pancreatic tumor cells; assay type: cell-based; details: 96 h
Excerpt: as §1
The AR42J rat pancreatic tumor cell line, purchased from ATTC (catalog number: CRL-1492), was propagated in modified Ham's medium containing 20% fetal bovine serum. These cells, derived from a transplantable tumor of the exocrine pancreas, contain significant amounts of amylase and other exocrine enzymes and they produce tumors in athymic mice.
For the experiment, cells were split in 96-well plates at 15,000 cells per well. After 24 hours, the medium was changed for fresh medium (0 hour) and various concentrations of CCompound1 and CCompound3 were added and incubations continued for 96 hours. The MTT assay was used to determine the relative number of viable cells. From the data shown in TABLE 13, in the 2-25 μM concentration range CC compounds had only inhibitory effects on the proliferation of pancreatic cancer cells.

[2] = system: human mesenchymal stem cells; assay: Survival/attachment of human mesenchymal stem cells, compound present during plating; assay type: cell-based; details: 5-10 μM, 10% or 2% serum, 24 h
Excerpt: Bone marrow aspirates were taken from normal adult donors signed after informed consent according to a protocol approved by the appropriate Ethics Committee. For the preparation of bone marrow mesenchymal stem cells, essentially a widely used technique was used as described earlier by others [Pittenger, M. F., Mackay, A. M., Beck, S. C., Jaiswal, R. K., Douglas, R., Mosca, J. D., Moorman, M. A., Simonetti, D. W., Craig, S, and Marshak, D. R., Multilineage potential of adult human mesenchymal stem cells (1999) Science 284, 143-147]. Briefly, nucleated cells were isolated with a pre-prepared commercial density gradient (Lymphoprep, Nycomed, Pharma, Oslo, Norway) and resuspended in Dulbecco's modified Eagle's medium (DMEM) (GIBCO, Grand Island, N.Y.) supplemented with 10% fetal calf serum (FCS), 50 U/ml of penicillin, and 50 μg/ml of streptomycin (GIBCO). All nucleated cells were plated in 25-cm^2 flasks (BD Falcon, Bedford, Mass.) at 37° C. in humidified atmosphere containing 5% CO2. […] When cells grew to about 80% confluence, they were suspended and harvested by incubating with a ready-made solution containing 0.25% trypsin and 1 mM EDTA (Sigma-Aldrich, St. Louis, Mo.) for 5 minutes at 37° C.; this cell suspension is designated as passage 1. […]
The total numbers of nucleated and viable cells were determined with a hemocytometer, using Turck's solution and trypan blue stain, respectively. […]

Q: How did the “effect on palmitic acid-induced decrease in the number of viable cells” value (shortened to “effect on palmitic acid-induced decrease”) (RINm5F rat islet β-cells; 5 μM) turn out when `Cc1c(OCC(O)C[N+](C)(C)C)cc2c(=O)c3ccccc3sc2c1C.[Cl-]` (stereo not drawn) [CCcompound1, [3-(3,4-Dimethyl-9-oxo-9H-thioxanthen-2-yloxy)-2-hydroxypropyl]trimethyl-ammonium chloride] was run?
A: partially prevented

Q: And the “effect on palmitic acid-induced decrease” value (RINm5F rat islet β-cells; 10 μM)?
A: almost fully prevented

Q: And the “effect on palmitic acid-induced decrease” value (RINm5F rat islet β-cells; 50 μM)?
A: added to the inhibitory effect of palmitic acid

Q: And the “A540 (MTT, relative number of viable cells)” value (RINm5F rat islet β-cells; palmitic acid 0.5 mM + compound 5 μM)?
A: 1,198 ± 0.086

Q: And the “A540 (MTT, relative number of viable cells)” value (RINm5F rat islet β-cells; palmitic acid 0.5 mM + compound 10 μM)?
A: 1,251 ± 0.069

Q: And the “A540 (MTT, relative number of viable cells)” value (RINm5F rat islet β-cells; palmitic acid 0.5 mM + compound 50 μM)?
A: 0.836 ± 0.080

Q: And the “effect on the inhibitory effects of STZ on cell proliferation” value (from here on “effect on the inhibitory effects of STZ”) (NIT-1 β-cells; 10 μM)?
A: almost fully reverses

Q: What about the “effect on the inhibitory effects of STZ” value (NIT-1 β-cells; 50 μM) of the same molecule?
A: added to the inhibitory effects of STZ

Q: And the “effect on the inhibitory effects of STZ” value (NIT-1 β-cells; 2-5 μM)?
A: partially reverses

Q: And the “A540 (MTT, relative number of viable cells)” value (NIT-1 β-cells; STZ 20 mM + compound 2 μM)?
A: 0.934 ± 0.053

Q: What about the “A540 (MTT, relative number of viable cells)” value (NIT-1 β-cells; STZ 20 mM + compound 5 μM) of the same molecule?
A: 1.078 ± 0.068

Q: What about the “A540 (MTT, relative number of viable cells)” value (NIT-1 β-cells; STZ 20 mM + compound 10 μM) of the same molecule?
A: 1.144 ± 0.056

Q: And the “A540 (MTT, relative number of viable cells)” value (NIT-1 β-cells; STZ 20 mM + compound 50 μM)?
A: 0.718 ± 0.071

Q: And the “A540 (MTT, relative number of viable cells)” value ([1]; 2 μM)?
A: 1.092 ± 0.083

Q: And the “A540 (MTT, relative number of viable cells)” value ([1]; 5 μM)?
A: 0.954 ± 0.080

Q: What about the “A540 (MTT, relative number of viable cells)” value ([1]; 10 μM) of the same molecule?
A: 0.882 ± 0.062

Q: What about the “A540 (MTT, relative number of viable cells)” value ([1]; 25 μM) of the same molecule?
A: 0.781 ± 0.090

Q: And the “effect on number of attached cells” value [2]?
A: enhanced the number of attached cells
